This note sets out measurements from paper PMC5310151 (Saudi Pharmaceutical Journal : SPJ, 2016).

For one assay, the target named is T1, PPARα (Mus musculus, UniProt P23204).
T1 sequence (P23204 1-468): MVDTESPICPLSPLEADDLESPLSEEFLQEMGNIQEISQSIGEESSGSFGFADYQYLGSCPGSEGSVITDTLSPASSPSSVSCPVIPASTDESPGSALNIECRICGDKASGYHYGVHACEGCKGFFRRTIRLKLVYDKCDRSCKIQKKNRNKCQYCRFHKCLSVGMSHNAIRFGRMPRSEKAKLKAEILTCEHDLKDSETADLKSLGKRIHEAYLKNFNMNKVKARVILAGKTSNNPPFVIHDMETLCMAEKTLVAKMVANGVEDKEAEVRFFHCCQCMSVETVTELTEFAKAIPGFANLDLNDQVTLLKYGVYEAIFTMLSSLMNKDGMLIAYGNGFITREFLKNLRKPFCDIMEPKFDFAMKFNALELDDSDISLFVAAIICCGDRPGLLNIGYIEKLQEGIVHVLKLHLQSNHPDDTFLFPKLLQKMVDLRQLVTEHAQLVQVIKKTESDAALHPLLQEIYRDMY
Description: PPRE luciferase reporter assay in HepG2 cells transfected with PPARα. The assay is classed as cell-based. Particulars: HepG2, read-out: Fold induction / PPAR alpha / 50 μg/ml. For orientation: In a reporter assay the amount or activity of a reporter protein is the signal.

The next assay addresses T2, PPARγ (Rattus norvegicus, UniProt O88275).
T2 sequence (O88275 1-505): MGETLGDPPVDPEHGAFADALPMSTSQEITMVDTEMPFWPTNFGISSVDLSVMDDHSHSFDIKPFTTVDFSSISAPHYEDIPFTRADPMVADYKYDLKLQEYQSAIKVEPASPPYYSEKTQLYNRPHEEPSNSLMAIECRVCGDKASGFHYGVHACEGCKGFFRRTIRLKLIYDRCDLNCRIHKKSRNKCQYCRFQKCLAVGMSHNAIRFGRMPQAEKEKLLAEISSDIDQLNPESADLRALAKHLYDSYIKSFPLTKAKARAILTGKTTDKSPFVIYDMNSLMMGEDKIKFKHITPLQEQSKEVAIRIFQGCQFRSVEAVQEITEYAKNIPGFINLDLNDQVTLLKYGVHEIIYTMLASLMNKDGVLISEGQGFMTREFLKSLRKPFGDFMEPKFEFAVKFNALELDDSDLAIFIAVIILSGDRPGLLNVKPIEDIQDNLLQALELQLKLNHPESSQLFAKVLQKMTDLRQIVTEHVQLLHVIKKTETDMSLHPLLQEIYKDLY
The assay can be described thus: PPRE luciferase reporter assay in HepG2 cells transfected with PPARγ. It is filed as cell-based. Conditions: HepG2, read-out: Fold induction / PPAR gamma / 50 μg/ml.

For `CC(C)(Oc1ccc(C2CC2(Cl)Cl)cc1)C(=O)O` (centres unmarked) [Ciprofibrate], the fold induction at PPARα was 2.2 ± 0.21.

Consider `CN(CCOc1ccc(CC2SC(=O)NC2=O)cc1)c1ccccn1` (centres unmarked) [Rosiglitazone], for which the fold induction at 10 µM on PPARγ is 4.33 ± 0.54.
